Assay results: US20240300928A1, “GLP-1 RECEPTOR AGONIST, PHARMACEUTICAL COMPOSITION COMPRISING SAME, AND METHOD FOR PREPARING SAME” (LG CHEM, LTD., priority 2021, published 2024)

target: T1, hGLP-1R (Homo sapiens, UniProt P43220); experiment: GLP-1R agonist activity measurement (cell-based luciferase assay); conditions: CHO-K1/hGLP-1R/CRE-luciferase cell line, 4 h treatment, Bright-Glo luminescence
T1 construct: expressed in transfected cells; host or cells: CHO-K1 (hGLP-1R and CRE-luciferase reporter)
Procedure: Experimental Example 1: GLP-1R Agonist Activity Measurement (Cell-Based Luciferase Assay)
The CHO-K1/hGLP-1R/CRE-luciferase cell line was seeded at 15000 cells in a 96-well plate. As a medium, Ham's F-12 Nutrient medium was used. After culturing for 18 hours in a 5% CO2 incubator maintained at 37° C., the drug was treated. Each drug plated at 9 concentrations was dissolved in DMEM/F-12+1% FBS medium and treated with 100 ul of each cell line. After culturing for 4 h, 30 ul of assay reagent was added to each well using the Bright-Glo™ luciferase assay system kit. After the plate was stored at room temperature for 15 min, luminescence was measured with a SpectraMax M5 instrument.

T1 sequence (P43220 24-463): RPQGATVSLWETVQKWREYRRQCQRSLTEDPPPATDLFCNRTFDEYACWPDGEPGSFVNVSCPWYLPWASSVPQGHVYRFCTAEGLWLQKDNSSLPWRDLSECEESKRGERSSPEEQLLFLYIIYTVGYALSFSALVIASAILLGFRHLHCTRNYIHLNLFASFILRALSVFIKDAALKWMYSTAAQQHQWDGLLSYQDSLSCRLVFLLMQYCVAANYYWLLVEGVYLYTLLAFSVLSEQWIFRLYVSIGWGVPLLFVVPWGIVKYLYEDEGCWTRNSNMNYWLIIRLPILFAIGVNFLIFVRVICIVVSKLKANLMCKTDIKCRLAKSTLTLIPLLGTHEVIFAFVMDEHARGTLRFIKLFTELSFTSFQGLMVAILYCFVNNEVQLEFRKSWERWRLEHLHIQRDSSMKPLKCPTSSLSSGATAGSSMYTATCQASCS

| EC50 [nM] | Compound |
| --- | --- |
| > 80 | O=C(O)c1ccc2nc(Cc3ccc(-c4cccc(OCC56CCC(CC5)CC6)n4)cc3)n(C[C@@H]3CCO3)c2c1 [Example 13, (S)-2-(4-(6-(bicyclo[2.2.2]octan-1-ylmethoxy)pyridin-2-yl)benzyl)-1-(oxetan-2-ylmethyl)-1H-benzo[d]imidazol-6-carboxylic acid] |
| 0.108 | CC1(c2ccc(Cl)cc2F)Oc2cccc(-c3ccc(Cc4nc5ccc(C(=O)O)cc5n4C[C@@H]4CCO4)cc3)c2O1 (stereo partly drawn) [Example 2, 2-(4-(2-(4-chloro-2-fluorophenyl)-2-methylbenzo[d][1,3]dioxol-4-yl)benzyl)-1-(((S)-oxetan-2-yl)methyl)-1H-benzo[d]imidazol-6-carboxylic acid] |
| 0.278 | CC1(c2ccc(Cl)cc2F)Oc2cccc(-c3ccc(Cc4nc5ccc(C(=O)O)cc5n4Cc4cnco4)cc3)c2O1 (stereo not shown) [Example 4, 2-(4-(2-(4-chloro-2-fluorophenyl)-2-methylbenzo[d][1,3]dioxol-4-yl)benzyl)-1-(oxazol-5-ylmethyl)-1H-benzo[d]imidazol-6-carboxylic acid] |
| > 80 | CCCn1cnnc1Cn1c(Cc2ccc(-c3cccnc3OCc3ccc(Cl)cc3F)cc2)nc2ccc(C(=O)O)cc21 [Example 7, 2-(4-(2-((4-chloro-2-fluorobenzyl)oxy)pyridin-3-yl)benzyl)-1-((4-propyl-4H-1,2,4-triazol-3-yl)methyl)-1H-benzo[d]imidazol-6-carboxylic acid] |
| 0.16 | CC1(c2ccc(Cl)cc2F)Oc2cccc(-c3ccc(Cc4nc5ccc(C(=O)O)cc5n4Cc4cnco4)cc3F)c2O1 (stereo not shown) [Example 5, 2-(4-(2-(4-chloro-2-fluorophenyl)-2-methylbenzo[d][1,3]dioxol-4-yl)-3-fluorobenzyl)-1-(oxazol-5-ylmethyl)-1H-benzo[d]imidazol-6-carboxylic acid] |
| 0.772 | CCCn1cnnc1Cn1c(Cc2ccc(-c3cccc4c3OC(C)(c3ccc(Cl)cc3F)O4)c(F)c2)nc2ccc(C(=O)O)cc21 (stereo not shown) [Example 9, 2-(4-(2-(4-chloro-2-fluorophenyl)-2-methylbenzo[d][1,3]dioxol-4-yl)-3-fluorobenzyl)-1-((4-propyl-4H-1,2,4-triazol-3-yl)methyl)-1H-benzo[d]imidazol-6-carboxylic acid] |
| 0.223 | CC1(c2ccc(Cl)cc2F)Oc2cccc(-c3ccc(Cc4nc5ccc(C(=O)O)cc5n4C[C@@H]4CCCO4)cc3)c2O1 (stereo partly drawn) [Example 12, 2-(4-(2-(4-chloro-2-fluorophenyl)-2-methylbenzo[d][1,3]dioxol-4-yl)benzyl)-1-(((S)-tetrahydrofuran-2-yl)methyl)-1H-benzo[d]imidazol-6-carboxylic acid] |
| 0.914 | CCCn1cnnc1Cn1c(Cc2ccc(-c3cccc4c3OC(C)(c3ccc(Cl)cc3F)O4)cc2)nc2ccc(C(=O)O)cc21 (stereo not shown) [Example 8, 2-(4-(2-(4-chloro-2-fluorophenyl)-2-methylbenzo[d][1,3]dioxol-4-yl)benzyl)-1-((4-propyl-4H-1,2,4-triazol-3-yl)methyl)-1H-benzo[d]imidazol-6-carboxylic acid] |
| 3.5 | O=C(O)c1ccc2nc(Cc3ccc(-c4cccnc4OCc4ccc(Cl)cc4F)cc3)n(Cc3cnco3)c2c1 [Example 6, 2-(4-(2-((4-chloro-2-fluorobenzyl)oxy)pyridin-3-yl)benzyl)-1-(oxazol-5-ylmethyl)-1H-benzo[d]imidazol-6-carboxylic acid] |
| 0.316 | O=C(O)c1ccc2nc(Cc3ccc(-c4cccnc4OCc4ccc(Cl)cc4F)cc3)n(C[C@@H]3CCO3)c2c1 [Example 1, (S)-2-(4-(2-((4-chloro-2-fluorobenzyl)oxy)pyridin-3-yl)benzyl)-1-(oxetan-2-ylmethyl)-1H-benzo[d]imidazol-6-carboxylic acid] |
| 0.0216 | CCn1cncc1Cn1c(Cc2ccc(-c3cccc4c3OC(C)(c3ccc(Cl)cc3F)O4)cc2)nc2ccc(C(=O)O)cc21 (stereo not shown) [Example 10, 2-(4-(2-(4-chloro-2-fluorophenyl)-2-methylbenzo[d][1,3]dioxol-4-yl)benzyl)-1-((1-ethyl-1H-imidazol-5-yl)methyl)-1H-benzo[d]imidazol-6-carboxylic acid] |
| 0.0256 | CCn1cncc1Cn1c(Cc2ccc(-c3cccc4c3OC(C)(c3ccc(Cl)cc3F)O4)c(F)c2)nc2ccc(C(=O)O)cc21 (stereo not shown) [Example 11, 2-(4-(2-(4-chloro-2-fluorophenyl)-2-methylbenzo[d][1,3]dioxol-4-yl)-3-fluorobenzyl)-1-((1-ethyl-1H-imidazol-5-yl)methyl)-1H-benzo[d]imidazol-6-carboxylic acid] |

| Compound | EC50 [nM] |
| --- | --- |
| CC1(c2ccc(Cl)cc2F)Oc2cccc(-c3ccc(Cc4nc5ccc(C(=O)O)cc5n4C[C@@H]4CCO4)cc3F)c2O1 (stereo partly drawn) [Example 3, 2-(4-(2-(4-chloro-2-fluorophenyl)-2-methylbenzo[d][1,3]dioxol-4-yl)-3-fluorobenzyl)-1-(((S)-oxetan-2-yl)methyl)-1H-benzo[d]imidazol-6-carboxylic acid] | 0.041 |
